Results published in US8552060B2, “Methods for treatment of sexual dysfunction” (SK Biopharmaceuticals Co., Ltd., priority 2005, dated 2013).

Key:
[1] = tested on: ovariectomized estrogen treated rat; test: Lordotic response in the ovariectomized estrogen treated rat (female sexual behavior); type: in vivo
Protocol: For initial preclinical evaluation of the effects on sexual behavior, the following study was conducted to evaluate the effects of test compound on lordotic response in the ovariectomized estrogen treated rat.
Animals: Long-Evans hooded female rates (100-125 g) male Sprague-Dawley rats (150-175 g) were obtained from Charles River Breeding laboratories.
Chemicals: Progesterone (Cat. # P-0130; Lot 128H0456) and estrone (Cat # E-9750; Lot 28H0372) were purchased from Sigma Chemical Company and quinelorane Cat # Q-110; Lot PRF-694A) and bupropion (Cat # B-102; BS-11-10) were purchased from Research Biochemicals Incorporated. Test compound (Lot # D5-91B) was synthesized at SK Biopharmaceutical Center, Fairfield, N.J. Estrone and progesterone were dissolved in propylene glycol (Fisher Scientific P355-1; Lot # 992032). test compound, quinelorane and bupropion were dissolved in sterile saline (0.9% NaCl, Abbott Laboratories Lot #25-270-DK).
Protocol for ovariectomy: Female rats (108-120 g) were anesthetized with 100 mg/kg s.c. ketamine (Ketaset 100 mg/ml, Ford Dodge Laboratories, lot #440339) and 7 mg/kg s.c. xylazine (Rompun 20 mg/ml, Bayer Corporation, lot #26050E). A midline incision (1 cm) on the ventral surface was made starting approximately 0.5-1 cm from the genitalia. A second incision (1 cm) was through the linea alba connecting fascia for abdominal muscles. The body of the uterus was located near the pubic bone and retracted through the abdominal incision. The uterine horns with ovaries were retracted through the abdominal wall. Each uterine horn was ligated near the uterine body bisected and removed. The abdominal, wall was closed with 2 sutures and the skin incision was closed with either wound clips or sutures. The rats were kept warm until they recovered from the anesthesia. OVX=ovariectomized.
Accelerated light cycle (10:14): Lights were on from 1 am to 11 am. During dark phase, the room was kept dark except for lighting from red lights needed to observe the behaviors.
Behavior observation arenas: Side walls (45×60 cm) and top (60×60 cm) with hole (15×15 cm) were constructed of clear Lucite plastic and bonded together with adhesive. The base was made from stainless steel grating and was placed over bedding material. Arenas and base were washed between experiments.
Protocol for female sexual behavior: At least 2-3 hours into the dark phase of the lighting cycle, male rats are placed into the behavior arenas and allowed to acclimate for 15 minutes prior to testing. Prior to the testing of experimental animals, the males are exposed to sexually receptive, OVX rats treated with estrone 0.25 mg s.c. 48 hours prior to test and progesterone 1 mg s.c. 6 hours prior to test. When active mating occurs, the receptive females are removed. The test female (OVX treated only with estrone 0.25 mg 48 hours prior to test) is added to the arena with the activated male. The number of lordosis responses for 15 mounts is recorded (lordosis is defined as a downward arching of the back to expose genitalia).
During this first test period, only female rats with a L/M of 4/15 or lower were treated with test drug and 90 minutes later the rats were retested as previously for 15 mounts. This exclusion criterion is used to lower the variance due to rats that become overly receptive to estrone. The index of change is the change in L/M between test 2 and test 1. Statistical comparisons of the treatment groups were made using ANOVA followed by a Dunnett's test for multiple treatment group designs and a Student's t test for single control and treatment designs with the minimum level of significance set at p<0.05.

[2] = tested on: patients; conditions: Foreman 1995; cited from earlier work
[3] = tested on: humans; test: Placebo controlled antidepressant trial in humans, analysis of post trial questionnaires; type: in vivo, human; conditions: mostly in males
Source text: This was a large placebo controlled study where the test compound was compared with a conventional SSRI antidepressant (Paroxetine). […] This study was not designed to see or evaluate this property of the compound and so future studies directed specifically to assess this property of test compound in humans will be performed.

[4] = tested on: rats and mice; test: Locomotor activity in rats and mice; type: in vivo; conditions: at higher dose
Source text: Although the mechanism of action of test compound is unknown, this pharmacological profile may involve activation of central catecholaminergic pathways.

SMILES | Lordotic response compared to vehicle treatment ([1]; 30 mg/kg s.c.) | Change in Lordotic Response ([1]; 30 mg/kg s.c., change in L/M, * significantly different from vehicle (Student's test)) | Effect on sexual response in patients [2] | Lordotic response compared to vehicle treatment ([1]; 25 μg/kg s.c.) | Change in Lordotic Response ([1]; 25 μg/kg s.c., change in L/M, * significantly different from vehicle (Student's test)) | Dose of peak effect on interest in sex and ability to have an orgasm [3] | Effect on interest in sex and ability to have an orgasm (post trial questionnaires) ([3]; placebo controlled study with Paroxetine comparator) | Effects on locomotor activity [4] | Change in Lordotic Response ([1]; 10 mg/kg s.c., change in L/M between test 2 and test 1, retest 90 minutes after drug, OVX estrone treated female rats) | Change in Lordotic Response ([1]; 30 mg/kg s.c., change in L/M between test 2 and test 1, retest 90 minutes after drug, * significantly different from vehicle (ANOVA, Dunnett's test)) | Change in Lordotic Response ([1]; 100 mg/kg s.c., change in L/M between test 2 and test 1, retest 90 minutes after drug, * significantly different from vehicle (ANOVA, Dunnett's test)) | Lordotic response compared to vehicle treatment ([1]; 30 and 100 mg/kg s.c.) | Lordotic behavior in the female rat, dose relation ([1]; doses of 10, 30 and 100 mg/kg s.c.)
CC(NC(C)(C)C)C(=O)c1cccc(Cl)c1 (centres unmarked) [Bupropion, bupropion, reference compound] | significant increases in lordotic response | 0.478 +/− 0.073 * | augment sexual response in patients | – | – | – | – | – | – | – | – | – | –
CCCN1CCC[C@@H]2Cc3nc(N)ncc3C[C@H]21 [Quinelorane, quinelorane, reference compound] | – | – | augment sexual response in patients | significant increases in lordotic response | 0.593 +/− 0.056 * | – | – | – | – | – | – | – | –
NC(=O)OC[C@H](N)Cc1ccccc1 [test compound, O-carbamoyl-(D)-phenylalaninol] | – | – | – | – | – | 400 mg per day | increasing interest in sex and in ability to have an orgasm | stimulant-like effects on locomotor activity | 0.338 +/− 0.049 | 0.476 +/− 0.049 * | 0.559 +/− 0.059 * | significantly greater lordotic response than vehicle treatment | dose-related increases in lordotic behavior
